Holding throughout (assay type): in vivo
The test system of one assay is SREBP-1c. Put plainly: SREBP-1c expression in liver by qPCR, ovariectomized obesity model. Particulars: liver mRNA, qPCR in comparison with β-actin; mice with removed ovaries; bacteria 1×10^9 CFU orally, PC 10 μg/kg/day intraperitoneally; Nor 1.0 ± 0.1, Con 4.5 ± 0.5. As to the method:
(§1) An experiment was performed by using six C57BL/6 mice (female, 21-23 g and 6 weeks old) per group after being acclimated in a laboratory for one week as described above in (1) of Example 2. After the mice were anesthetized with isoflurane and the ovaries were removed therefrom, the resulting mice were raised for six weeks so as to create an animal model with obesity, showing a significant weight gain. From one week after ovarian removal, Lactobacillus plantarum NK3, Bifidobacterium longum NK49, a 1:1 mixture thereof, or a 4:1 mixture thereof, which is a novel lactic acid bacterium, was orally administered in a daily amount of 1×10^9 CFU for six days a week for five weeks. In addition, 17β-estradiol (PC) was intraperitoneally administered at 10 μg/kg/day to the experimental animals of the positive control group, and the sham group and the experimental group with removed ovaries were orally dosed with physiological saline solution instead of drugs. […] The body weight was measured once a week. An expression of sterol regulatory element-binding transcription factor 1c (SREBP-1c) and peroxisome proliferator-activated receptor gamma coactivator 1-alpha (PGC-1α) was measured by using a quantitative reverse transcription polymerase chain reaction (qPCR). […] The amount of final expressed genes was calculated in comparison with β-actin.

Another assay has as its system PGC-1α. As to the kind of experiment: PGC-1α expression in liver by qPCR, ovariectomized obesity model. Particulars: liver mRNA, qPCR in comparison with β-actin; mice with removed ovaries; bacteria 1×10^9 CFU orally, PC 10 μg/kg/day intraperitoneally; Nor 1.0 ± 0.1, Con 0.6 ± 0.2. As to the method:
as §1

For assay [1], the system named is animal model with osteoporosis (C57BL/6 mice with removed ovaries). As to the kind of experiment: Osteoporosis indices in blood (AP activity, Ca, P, osteocalcin) of ovariectomized mice. Particulars: bacteria 1×10^9 CFU orally for five weeks. As to the method:
An experiment was performed by using six C57BL/6 mice (female, 21-23 g and 6 weeks old) per group after being acclimated in a laboratory for one week. After the mice were anesthetized with isoflurane, the ovaries were removed therefrom to create an animal model with osteoporosis. From one week after ovarian removal, Lactobacillus plantarum NK3, Bifidobacterium longum NK49, a 1:1 mixture thereof, or a 4:1 mixture thereof (a ratio of LP:BL is 4:1 and the same as below), which is a novel lactic acid bacterium, was orally administered in a daily amount of 1×10^9 CFU for six days a week for five weeks. In addition, 17β-estradiol (PC) was intraperitoneally administered at 10 μg/kg/day to the experimental animals of the positive control group, and the sham group and the experimental group with removed ovaries were orally dosed with physiological saline solution instead of drugs.
On the day after the administration of lactic acid bacteria was completed, the experimental animals were sacrificed, and then blood, thighbone, colon, womb, and liver were separated therefrom so as to measure osteoporosis indices.
Osteocalcin in blood was measured with R&D system ELISA Kit (Minneapolis, Minn., USA); Ca and P were measured with ASAN Ca-Lq Reagents and ASAN Pi-Lq Reagents of Asan Pharmaceutical Co., Ltd, respectively; and alkaline phosphatase (AP) activity was measured with Alkaline phosphatase activity colorimetric assay kit (Sigma, USA).

In the case of `C[C@]12CC[C@@H]3c4ccc(O)cc4CC[C@H]3[C@@H]1CC[C@@H]2O` [PC, 17β-estradiol], in the assay with SREBP-1c, the SREBP-1c expression came to 2.7 ± 0.3. In the assay on PGC-1α, this compound registered a PGC-1α expression of 0.8 ± 0.2. Further, the Osteocalcin in blood in assay [1] (PC 10 μg/kg/day intraperitoneally, Con 1.85 ± 0.32) came out at 1.53 ± 0.15 µg/L. The Ca in blood in assay [1] (PC 10 μg/kg/day intraperitoneally, Con 6.4 ± 0.4) turned out to be 6.2 ± 0.2 mg/dL. Besides, the P in blood in assay [1] (PC 10 μg/kg/day intraperitoneally, Con 12.5 ± 1.5) was found to be 12.1 ± 1.1 mg/dL. Besides, the “AP (alkaline phosphatase activity in blood)” value in assay [1] (PC 17β-estradiol 10 μg/kg/day intraperitoneally, Con 282.2 ± 10.3) was 220.6 ± 10.3 IU/L.

The values above are taken from patent US20230181657A1, “NOVEL LACTIC ACID BACTERIA AND USE THEREOF” (UNIVERSITY- INDUSTRY COOPERATION GROUP OF KYUNG HEE …, priority 2018, published 2023).
